Source: patent US11485720B2, “Anti-infective agents” (University of Dundee, priority 2016, dated 2022)
“And” between values parts separate entries of the source, which are not always exact repeats. Identical values can stand only once. Counter-ions that a name gives are not always drawn. Values belong to the molecule of their own block, whether it stands above or below them.

How the values were obtained:
Hep G2 = Hep G2 in-vitro cytotoxicity assay; assay type: cell-based; conditions: Homo sapiens, HepG2, read-out: Hs HEPG2 pEC50 (converted)
Description: In-vitro cytotoxicity studies can be carried out using Hep G2 (Human hepatocyte carcinoma, HPACC cat. no. 85011430) used as indicators for general mammalian cell toxicity. Hep G2 in-vitro cytotoxicity can be assessed using the assay procedure as described in “Use of a human-derived liver cell line for the detection of cytoprotective, antigenotoxic and cogenotoxic agents”, Volker Mersch-Sundermann, Siegfried Knasmüller, Xin-jiang Wu, Firouz Darroudi, Fekadu Kassie. J. Tox 198 (2004) 329-340) the contents of which are incorporated herein by reference.

Cryptosporidium parvum = experiment: In vitro Crytosporidium inhibition assay; assay type: cell-based; conditions: Cryptosporidium parvum; read-out: Cryptosporidium parvum pEC50 (converted)
Description: Assay Method for Measurement of In Vitro Inhibition of Crytosporidium.
These experiments were run in accordance with the method of Besssoff et. al. Antimicrob. Agents Chemother. 2013, 57:1804-1814. Results from these experiments are provided in the Experimental Results hereinafter.

[1] = target: T1, Plasmodium falciparum lysyl t-RNA synthetase (Pf-KRS1) (Plasmodium falciparum, UniProt Q8IDJ8); experiment: Pf-KRS1 inhibition biochemical assay (Kinase-Glo, ATP depletion); conditions: read-out: Pf-KRS pIC50 (converted)
T1 construct: Pf KRS1-; made in house; host or cells: E. coli BL21 (DE3)
T1 sequence (Q8IDJ8 entry or part of it, looked up, natural form): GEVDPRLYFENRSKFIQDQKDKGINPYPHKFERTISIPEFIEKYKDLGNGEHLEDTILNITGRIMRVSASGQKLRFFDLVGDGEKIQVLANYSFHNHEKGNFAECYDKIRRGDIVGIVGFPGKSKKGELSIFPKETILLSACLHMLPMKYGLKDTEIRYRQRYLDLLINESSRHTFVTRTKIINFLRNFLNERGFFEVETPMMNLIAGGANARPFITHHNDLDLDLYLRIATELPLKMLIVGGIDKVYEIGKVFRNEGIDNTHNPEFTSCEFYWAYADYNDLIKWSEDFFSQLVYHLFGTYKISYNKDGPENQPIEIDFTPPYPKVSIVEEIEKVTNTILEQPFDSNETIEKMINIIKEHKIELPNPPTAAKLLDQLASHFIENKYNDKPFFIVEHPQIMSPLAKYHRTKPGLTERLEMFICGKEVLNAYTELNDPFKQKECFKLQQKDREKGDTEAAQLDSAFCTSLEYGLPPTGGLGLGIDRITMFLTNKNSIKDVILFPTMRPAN
Description: Plasmodium falciparum Lysine tRNA Synthetase (KRS1) Biochemical Assay Methodology.
Lysine tRNA Synthetase (KRS1) is an enzyme which catalyses the esterification of L-Lysine to the appropriate transfer ribonucleic acid (tRNA), to form an aminoacyl-tRNA. Once the tRNA is charged, a ribosome transfers the amino acid from the tRNA onto a growing peptide, according to the genetic code.
The substrates of this reaction are L-lysine, and adenosine triphosphate (ATP), the overall reaction is: amino acid+tRNA+ATP→aminoacyl-tRNA+AMP+PPi
In this overall reaction AMP is adenosine monophosphate and PP; is inorganic pyrophosphate. The reaction progression in a biochemical assay can be tracked by the depletion of one of the substrates, in the case of this invention, ATP. This was done using the proprietary assay kit, Kinase Glo® Assay which is a luminescent kinase assay platform suitable for monitoring kinase activities using up to 10 μm ATP which is commercially available from the Promega Corporation of Madison, Wis., USA. The Kinase-Glo® Assay was performed in a single well of a multiwell plate by adding a volume of Kinase-Glo® Reagent equal to the volume of a completed kinase reaction and measuring luminescence. The resulting luminescent signal is correlated with the amount of ATP present and is inversely correlated with the amount of kinase activity. As such by use of this assay methodology a reduction of the luminescent signal is relative to the reduction in ATP as the reaction progresses. A compound which inhibits the action of KRS will show no drop in the luminescent signal from assay controls.
Assays were performed using both Plasmodium falciparum and human KRS to assess any selectivity of various test compounds.
Test compounds were solubilized in DMSO at a top concentration of 10 mM and serially diluted 1 in 3 to achieve a range of final assay concentrations of 50 μM to 2.5 nM in 10 μl reaction volume.
KRS was diluted to a working concentration of 75 nM in assay buffer (25 mM HEPES, 25 mM KOH, 10 mM MgCl2.6H2O, 50 mM KCl), and the following ‘Master Mix’ prepared in assay buffer: 0.1 mg/ml BSA, 250 μM DTT, 200 μM Spermine, 0.05% NP-40, ATP 3 μM for Pf KRS1 (4 μM for Hs KRS1), 0.4 mg/ml tRNA from Yeast, 60 μM L-Lysine, 0.5 U/ml Pyrophosphatase.
Plates were incubated at room temperature for 5 h for Pf KRS (2.5 hrs for HsKRS), then the assay stopped by the addition of 10 μl of The Kinase-Glo® Reagent Assay was performed in a single well of a multiwell plate by adding a volume of Kinase-Glo® Reagent which is commercially available from the Promega Corporation of Madison, Wis., USA. The plates were incubated in the dark for a further 15 mins before being read for luminescence on a BMG PHERAstar® FSX plate reader which is a multi-mode reader for use in high-throughput screening available from BMG Labtech if Cary, N.C., USA. Data were analysed by calculating the percentage inhibition compared to the maximum and minimum assay controls. Concentration effect curves were fitted using nonlinear regression within ActivityBase and IC50 values were determined using standard protocols.

[2] = system: Plasmodium falciparum strain 3D7; experiment: Plasmodium falciparum 3D7 in vitro growth inhibition (SYBRgreen I); assay type: cell-based; conditions: Plasmodium falciparum, 3D7; read-out: pEC50 for Pf 3D7 (converted)
Protocol: Parasite Cultures and Cytotoxicity Assay Methodology for Plasmodium falciparum. […] Growth inhibition of the Plasmodium falciparum cultures was quantified in a 10-point dose response curve with a 1 in 3 dilution series from a top assay concentration of 50 μM. This 384 well plate based fluorescence assay utilises the binding of SYBRgreen I (Thermo Fisher Scientific/Invitrogen cat. no. S7585) to double stranded DNA, which greatly increases the fluorescent signal at 528 nm after excitation at 485 nm. Mefloquine was used as a drug control to monitor the quality of the assay (Z′=0.6 to 0.8, where Z′ is a measure of the discrimination between the positive and negative controls on a screen plate). Dose-response curves were determined from a minimum of 3 independent experiments. Compound bioactivity was expressed as EC50, the effective concentration of compound causing 50% parasite death.

Compound: O=C(NCC1CCCCC1)c1cc(=O)c2cccc(F)c2o1 [Example 8, N-(cyclohexylmethyl)-8-fluoro-4-oxo-chromene-2-carboxamide]
EC50 (Hep G2): 50100 nM

Compound: O=C(NCC1CCCCC1)c1cc(=O)c2ccc(Cl)cc2o1 [Example 9, 7-chloro-N-(cyclohexylmethyl)-4-oxo-chromene-2-carboxamide]
EC50 (Cryptosporidium parvum): 3550 nM
IC50 [1]: 200 nM
EC50 [2]: 1580 nM

Compound: O=C(NCC1CCCC1)c1cc(=O)c2ccccc2o1 [Example 23, N-(cyclopentylmethyl)-4-oxo-chromene-2-carboxamide]
EC50 (Cryptosporidium parvum): 2000 nM
IC50 [1]: 398 nM
EC50 [2]: 1580 nM

Compound: O=C(NCCC1CCCC1)c1cc(=O)c2ccccc2o1 [Example 26, N-(2-cyclopentylethyl)-4-oxo-chromene-2-carboxamide]
EC50 (Cryptosporidium parvum): 10000 nM
IC50 [1]: 501 nM
EC50 [2]: 6310 nM

Compound: O=C(NCC1CCCCO1)c1cc(=O)c2cc(F)ccc2o1 (stereo not drawn) [Example 32, 6-fluoro-4-oxo-N-(tetrahydropyran-2-ylmethyl)chromene-2-carboxamide]
IC50 [1]: 398 nM and 794 nM
EC50 [2]: 1580 nM

Compound: O=C(NCC1CC2CCC1C2)c1cc(=O)c2cc(F)ccc2o1 (stereo not drawn) [Example 36, 6-fluoro-N-(norbornan-2-ylmethyl)-4-oxo-chromene-2-carboxamide]
EC50 (Cryptosporidium parvum): 1260 nM
IC50 [1]: 126 nM
EC50 [2]: 794 nM

Compound: O=C(NCC1(CCO)CCCCC1)c1cc(=O)c2cc(F)ccc2o1 [Example 40A, 6-Fluoro-N-((1-(2-hydroxyethyl)cyclohexyl)methyl)-4-oxo-4H-chromene-2-carboxamide]
IC50 [1]: 200 nM
EC50 [2]: 200 nM
EC50 (Hep G2): 50100 nM

Compound: O=C(NCC1CCCCC1)c1cc(=O)c2ccc(F)cc2o1 [Example 42, N-(cyclohexylmethyl)-7-fluoro-4-oxo-chromene-2-carboxamide]
EC50 (Cryptosporidium parvum): 1260 nM
IC50 [1]: 200 nM
EC50 [2]: 794 nM

Compound: NC(=O)c1ccc2oc(C(=O)NCC3CCCCC3)cc(=O)c2c1 [Example 43, N2-(cyclohexylmethyl)-4-oxo-chromene-2,6-dicarboxamide]
EC50 (Cryptosporidium parvum): 5010 nM
IC50 [1]: 398 nM
EC50 [2]: 3160 nM

Compound: CCc1ccc2oc(C(=O)NCC3(O)CCCCC3)cc(=O)c2c1 [Example 45, 6-ethyl-N-[(1-hydroxycyclohexyl)methyl]-4-oxo-chromene-2-carboxamide]
EC50 (Hep G2): 50100 nM

Compound: O=C(NC[C@@H]1CCCC[C@H]1O)c1cc(=O)c2cc(F)ccc2o1 [Example 57E, 6-Fluoro-N-(((1S,2R)-2-hydroxycyclohexyl)methyl)-4-oxo-4H-chromene-2-carboxamide]
EC50 (Hep G2): 50100 nM

Compound: CCOC(=O)CC1(CNC(=O)c2cc(=O)c3cc(F)ccc3o2)CCCCC1 [Example 57K, Ethyl 2-(1-((6-fluoro-4-oxo-4H-chromene-2-carboxamido)methyl)cyclohexyl)acetate]
IC50 [1]: 316 nM

Compound: O=C(NCC1CCCCC1)c1cc(=O)c2cccc(OCCN3CCNCC3)c2o1 [Example 62, N-(cyclohexylmethyl)-4-oxo-8-(2-piperazin-1-ylethoxy)chromene-2-carboxamide dihydrochloride]
EC50 (Hep G2): 50100 nM

Compound: COc1cccc2c(=O)cc(C(=O)NCC3CCCCC3)oc12 [Example 66, N-(cyclohexylmethyl)-8-methoxy-4-oxo-4H-chromene-2-carboxamide]
IC50 [1]: 501 nM
EC50 [2]: 2510 nM

Compound: O=C(NCC1(O)CCCC1)c1cc(=O)c2cc(F)cc(O)c2o1 [Example 76F, 6-fluoro-8-hydroxy-N-((1-hydroxycyclopentyl)methyl)-4-oxo-4H-chromene-2-carboxamide]
IC50 [1]: 79.4 nM
EC50 [2]: 501 nM

Compound: O=C(NCC1(O)CCC(F)(F)CC1)c1cc(=O)c2ccc(F)c(O)c2o1 [Example 80, N-((4,4-difluoro-1-hydroxycyclohexyl)methyl)-7-fluoro-8-hydroxy-4-oxo-4H-chromene-2-carboxamide]
IC50 [1]: 316 nM
EC50 (Hep G2): 50100 nM

Compound: O=C(NCC1CCCCC1)c1cc(=O)c2cccc(CO)c2o1 [Example 82, N-(cyclohexylmethyl)-8-(hydroxymethyl)-4-oxo-chromene-2-carboxamide]
IC50 [1]: 251 nM
EC50 [2]: 200 nM
EC50 (Hep G2): 50100 nM

Compound: CS(=O)(=O)Nc1cccc2c(=O)cc(C(=O)NCC3(O)CCCCC3)oc12 [Example 84A, N-[(1-hydroxycyclohexyl)methyl]-8-(methylsulfonamido)-4-oxo-4H-chromene-2-carboxamide]
EC50 (Hep G2): 50100 nM

EC50 [2]: 126 nM
Compound: COC(=O)c1cccc2c(=O)cc(C(=O)NCC3CCCCC3)oc12 [Example 87, Methyl 2-((cyclohexylmethyl)carbamoyl)-4-oxo-4H-chromene-8-carboxylate]
EC50 (Hep G2): 25100 nM

EC50 (Cryptosporidium parvum): 7940 nM
Compound: O=C(NCC1CCCCC1)c1cc(=O)c2cccc(C(=O)O)c2o1 [Example 88, 2-((Cyclohexylmethyl)carbamoyl)-4-oxo-4H-chromene-8-carboxylic acid]

Compound: NC(=O)c1cccc2c(=O)cc(C(=O)NCC3CCCCC3)oc12 [Example 89, N2-(cyclohexylmethyl)-4-oxo-4H-chromene-2,8-dicarboxamide]
IC50 [1]: 501 nM
EC50 (Hep G2): 50100 nM

Compound: Cc1c(C(=O)NCC2CCCCC2)oc2ccccc2c1=O [Example 90, N-(cyclohexylmethyl)-3-methyl-4-oxo-4H-chromene-2-carboxamide]
IC50 [1]: 1260 nM
EC50 [2]: 5010 nM

EC50 [2]: 79.4 nM
Compound: Nc1c(F)ccc2c(=O)cc(C(=O)NCC3(O)CCC(F)(F)CC3)oc12 [Example 92, 8-Amino-N-[(4,4-difluoro-1-hydroxy-cyclohexyl)methyl]-7-fluoro-4-oxo-chromene-2-carboxamide]

EC50 [2]: 12.6 nM
Compound: Nc1cc(F)cc2c(=O)cc(C(=O)NCC3(O)CCCCC3)oc12 [Example 96, 8-amino-6-fluoro-N-[(1-hydroxycyclohexyl)methyl]-4-oxo-4H-chromene-2-carboxamide]

EC50 [2]: 39.8 nM
Compound: Nc1cc(F)cc2c(=O)cc(C(=O)NCC3(F)CCCCC3)oc12 [Example 97, 8-amino-6-fluoro-N-[(1-fluorocyclohexyl)methyl]-4-oxo-4H-chromene-2-carboxamide]
EC50 (Hep G2): 20000 nM

EC50 [2]: 631 nM
Compound: Nc1cc(F)cc2c(=O)cc(C(=O)NC[C@H]3CC[C@H](O)CC3)oc12 [Example 98, 8-amino-6-fluoro-N-[(4-hydroxycyclohexyl)methyl]-4-oxo-chromene-2-carboxamide]
EC50 (Hep G2): 50100 nM

Compound: CS(=O)(=O)Nc1cc(F)cc2c(=O)cc(C(=O)NCC3CCCCC3)oc12 [Example 100, N-(cyclohexylmethyl)-6-fluoro-8-(methanesulfonamido)-4-oxo-chromene-2-carboxamide]
IC50 [1]: 158 nM
EC50 [2]: 200 nM
EC50 (Hep G2): 50100 nM
